Reference: US6498158B1, “Il-5 inhibiting 6-azauracil derivatives” (Janssen Pharmaceutica N.V., priority 1998, dated 2002)

Tests used:
IL-5 production = assay: In vitro inhibition of IL-5 production in human blood; format: cell-based; conditions: test dose of 1×10^−6 M, phytohemagglutinin-stimulated human whole blood, ELISA; for inhibition at 1 µM: Homo sapiens, 48 h, read-out: % inh. (percentage inhibition of IL-5 production); for % inh. (percentage inhibition of IL-5 production): 48 hours
Experimental: In Vitro Inhibition of IL-5 Production in Human Blood
Human Whole Blood Stimulation
Peripheral blood from healthy male donors was drawn into heparinized syringes (12.5 U heparin/ml). Blood samples were three-fold diluted in RMPI 1640 medium (Life Technologies, Belgium) supplemented with 2 mM L-glutamine, 100 U/ml penicillin and […] streptomycin, and […] fractions were distributed in 24-well multidisc plates. Blood samples were preincubated (60 minutes at 37° C.) in a humidified 6% CO2-atmosphere with 100 ml of drug solvent (final concentration 0.02% dimethylsulfoxide in RPMI 1640) or with 100 ml of an appropriate dose of test compound before being stimulated by the addition of […] of phytohemagglutinin HA17 (Murex, UK) at a final concentration of […]. After 48 hours, cell-free supernatant fluids were collected by centrifugation and stored at −70° C. until tested for the presence of IL-5.
IL-5 measurements were conducted as described in Van Wauwe et al. (1996, Inflamm Res, 45, 357-363) on page 358 using ELISA.
Table 3 lists the percentage inhibition of IL-5 production (column “% inh”) at a test dose of 1×10^−6 M for the compounds of the present invention.

Row | melting point [°C] | Structure (SMILES) | inhibition at 1 µM (IL-5 production) [%] | % inh. (percentage inhibition of IL-5 production) (IL-5 production) [%]
1 |  | N#CC1(c2c(Cl)cc(-n3ncc(=O)[nH]c3=O)cc2Cl)CCc2ccccc21 (centres unmarked) [Compound 1] | 70.5 | 
2 | 88 | CCOC(=O)C1(c2c(Cl)cc(-n3ncc(=O)[nH]c3=O)cc2Cl)CCc2ccccc21 (centres unmarked) [Compound 2] | 63 | 
3 | 237 | Cc1sc(C2(c3c(Cl)cc(-n4ncc(=O)[nH]c4=O)cc3Cl)CCc3ccccc32)nc1-c1ccccc1 (centres unmarked) [Compound 4] | 89.3 | 
4 | 122 | Cc1sc(C2(c3c(Cl)cc(-n4ncc(=O)[nH]c4=O)cc3Cl)CCc3ccccc32)nc1-c1ccccc1 (centres unmarked) [Compound 5] |  | 88
5 |  | Cc1sc(C2(c3c(Cl)cc(-n4ncc(=O)[nH]c4=O)cc3Cl)CCc3ccccc32)nc1-c1ccccc1 (centres unmarked) [Compound 6] |  | 91
